Measurements as given in US20090099192A1, “Substituted 1H-pyrrole-2,5-diones” (Bayer CropScience AG, priority 2004, published 2009).

Assay: logP determination by HPLC on reversed-phase column (C 18), EEC Directive 79/831 Annex V.A8
Format: physicochemical
Details: reversed-phase C 18, 43° C., acid range (0.1% aqueous phosphoric acid, acetonitrile), marked a)
Method: a) The logP values given in table 1 were determined in accordance with EEC Directive 79/831 Annex V.A8 by HPLC (High Performance Liquid Chromatography) on a reversed-phase column (C 18). Temperature: 43° C. (a) Mobile phases for the determination in the acid range: 0.1% aqueous phosphoric acid, acetonitrile; linear gradient from 10% acetonitrile to 90% acetonitrile—corresponding measurement results are marked a) in table 1. Calibration was carried out using unbranched alkan-2-ones (having 3 to 16 carbon atoms) with known logP values (determination of the logP values by the retention times using linear interpolation between two successive alkanones).

Compound	logP
CC1CCCC(C#N)(N2C(=O)C(OC(=O)C(C)(C)C)=C(c3ccccc3Cl)C2=O)C1 (centres unmarked) [Example 171]	logP = 5.01^a)
O=C1C(O)=C(c2c(F)cccc2F)C(=O)N1c1ccc(C(F)(F)F)cc1 [Example 66]	logP = 3.48^a)
CC1CCCC(C#N)(N2C(=O)C(O)=C(c3ccccc3Cl)C2=O)C1 (centres unmarked) [Example 158]	logP = 3.06^a)
O=C1C(O)=C(c2cc(Cl)cc(Cl)c2)C(=O)N1Cc1cc(Cl)cc(Cl)c1 [Example 118]	logP = 4.21^a)
Cc1ccc(-c2ccc(Cl)cc2)cc1C1=C(O)C(=O)N(C(C)c2ccc(Cl)cc2)C1=O (centres unmarked) [Example 120]	logP = 4.94^a)
O=C1C(O)=C(c2ccccc2Cl)C(=O)N1C1CCOCC1 [Example 154]	logP = 1.94^a)
CC1CC(N2C(=O)C(O)=C(c3ccccc3Cl)C2=O)CC(C)(C)C1 (centres unmarked) [Example 159]	logP = 4.18^a)
Cc1ccc(-c2ccc(Cl)cc2)cc1C1=C(O)C(=O)N(C(C)c2ccccc2Cl)C1=O (racemic) [Example 136]	logP = 4.75^a)
CCOC(=O)CCN1C(=O)C(O)=C(c2cc(Cl)cc(Cl)c2)C1=O [Example 179]	logP = 2.80^a)
CC1CCCC(N2C(=O)C(O)=C(c3ccccc3Cl)C2=O)C1 (centres unmarked) [Example 162]	logP = 3.57^a)
O=C1C(O)=C(c2ccccc2Cl)C(=O)N1C12CC3CC(CC(C3)C1)C2 [Example 161]	logP = 4.20^a)
O=C1C(O)=C(c2ccccc2Cl)C(=O)N1c1cccc(C(F)(F)F)c1 [Example 26]	logP = 3.04^a)
O=C1C(O)=C(c2cc(Cl)cc(Cl)c2)C(=O)N1CCC(F)(F)F [Example 49]	logP = 2.94^a)
CCOC(=O)C1CCCC(N2C(=O)C(O)=C(c3ccccc3Cl)C2=O)C1 (centres unmarked) [Example 150]	logP = 3.01^a)
CCOC(=O)CCN1C(=O)C(O)=C(c2ccc(C)cc2)C1=O [Example 180]	logP = 2.74^a)
O=C1C(O)=C(c2ccccc2Cl)C(=O)N1Cc1cc(Cl)cc(Cl)c1 [Example 111]	logP = 3.67^a)
Cc1ccc(-c2ccc(Cl)cc2)cc1C1=C(O)C(=O)N(c2c(Cl)cc(Cl)cc2Cl)C1=O [Example 127]	logP = 4.75^a)
CCOC(=O)C1(N2C(=O)C(O)=C(c3ccccc3Cl)C2=O)CCC(OC)CC1 (single isomer, unassigned) [Example 149]	logP = 2.76^a)
Cc1cc(C)c(C2=C(O)C(=O)N(Cc3c(F)cccc3F)C2=O)c(C)c1 [Example 104]	logP = 3.48^a)
CCOC(=O)C1(N2C(=O)C(OC(=O)C(C)(C)C)=C(c3ccccc3Cl)C2=O)CCCC(C)C1 (centres unmarked) [Example 170]	logP = 5.85^a)

Compound	logP
O=C1C(O)=C(c2c(F)cccc2F)C(=O)N1c1ccc(Cl)cc1 [Example 58]	logP = 2.45^a)
O=C1C(O)=C(c2ccccc2Cl)C(=O)N1c1ccccc1 [Example 24]	logP = 2.43^a)
O=C1C(O)=C(c2ccccc2F)C(=O)N1c1ccc(C(F)(F)F)cc1 [Example 67]	logP = 3.01^a)
CCOC(=O)C1(N2C(=O)C(O)=C(c3ccccc3Cl)C2=O)CCCC(C)C1 (centres unmarked) [Example 168]	logP = 3.78^a)
CC(C)(C)C(=O)OC1=C(c2ccccc2Cl)C(=O)N(c2ccccc2)C1=O [Example 28]	logP = 4.37^a)
CC1CCCC(N2C(=O)C(O)=C(c3ccccc3Br)C2=O)C1 (centres unmarked) [Example 163]	logP = 3.61^a)
CCOC(=O)C1(N2C(=O)C(OC(=O)C(C)(C)C)=C(c3ccccc3Cl)C2=O)CCCCC1 [Example 169]	logP = 5.50^a)
CCOC(=O)C1(N2C(=O)C(O)=C(c3ccccc3Cl)C2=O)CCC(OC)CC1 (single isomer, unassigned) [Example 151]	logP = 2.53^a)
CCOC(=O)CCN1C(=O)C(O)=C(c2ccccc2Cl)C1=O [Example 177]	logP = 2.21^a)
CCOC(=O)C1(N2C(=O)C(O)=C(c3ccccc3Cl)C2=O)CCCCC1 [Example 167]	logP = 3.40^a)
Cc1ccc(-c2ccc(Cl)cc2)cc1C1=C(O)C(=O)N(c2c(Cl)cccc2Cl)C1=O [Example 135]	logP = 4.18^a)
Cc1ccc(-c2ccc(Cl)cc2)cc1C1=C(O)C(=O)N(C(C)(C)C)C1=O [Example 137]	logP = 4.51^a)
O=C1C(O)=C(c2ccccc2Cl)C(=O)N1c1ccccc1C(F)(F)F [Example 25]	logP = 2.60^a)
CC(C)(C)C(=O)OC1=C(c2ccccc2Cl)C(=O)N(C2CCOCC2)C1=O [Example 156]	logP = 3.87 ^a)
Cc1ccc(-c2ccc(Cl)cc2)cc1C1=C(O)C(=O)N(C(C)C)C1=O [Example 122]	logP = 4.08^a)
O=C1C(O)=C(c2cccc(C(F)(F)F)c2)C(=O)N1c1cc(Cl)cc(Cl)c1 [Example 75]	logP = 3.78^a)
CC(C)(C)C(=O)OC1=C(c2ccccc2Cl)C(=O)N(C2CCCCC2)C1=O [Example 23]	logP = 5.39^a)
Cc1cc(C)c(C2=C(O)C(=O)N(Cc3ccccc3F)C2=O)c(C)c1 [Example 93]	logP = 3.51^a)
CCCCOC1CCCC(N2C(=O)C(O)=C(c3ccccc3Cl)C2=O)C1 (centres unmarked) [Example 153]	logP = 4.09^a)

Results, then the compound that gave them:

logP	Compound
logP = 4.27^a)	O=C1C(O)=C(c2ccc(Cl)cc2)C(=O)N1Cc1ccc(OC(F)(F)F)cc1 [Example 88]
logP = 3.48^a)	O=C1C(O)=C(c2cccc(C(F)(F)F)c2)C(=O)N1Cc1ccccc1F [Example 96]
logP = 2.80^a)	N#Cc1ccc(C2=C(O)C(=O)N(c3ccc(C(F)(F)F)cc3)C2=O)cc1 [Example 69]
logP = 2.82^a)	O=C1C(O)=C(c2ccc(Cl)cc2)C(=O)N1CC(F)(F)F [Example 41]
logp = 4.18^a)	O=C1C(O)=C(c2ccc(C(F)(F)F)cc2)C(=O)N1Cc1cc(Cl)cc(Cl)c1 [Example 116]
logP = 3.94^a)	O=C1C(O)=C(c2ccc(Cl)cc2)C(=O)N1c1cc(Cl)cc(Cl)c1 [Example 78]
logP = 4.13^a)	CCOc1cccc(F)c1CN1C(=O)C(O)=C(c2ccc(OC(F)(F)F)cc2)C1=O [Example 182]
logP = 2.61^a)	CCOc1cccc(F)c1CN1C(=O)C(O)=C(c2ccc(C#N)cc2)C1=O [Example 172]
logP = 2.82^a)	O=C1C(O)=C(c2cccc(OC(F)(F)F)c2)C(=O)N1CC(F)(F)F [Example 42]
logP = 4.48^a)	O=C1C(O)=C(c2ccc(OC(F)(F)F)cc2)C(=O)N1Cc1ccc(OC(F)(F)F)cc1 [Example 86]
logP = 6.09^a)	N#Cc1ccc(C2=C(O)C(=O)N(c3ccc(C(F)(F)F)cc3F)C2=O)cc1 [Example 144]
logP = 4.03^a)	O=C1C(O)=C(c2ccc(C(F)(F)F)cc2)C(=O)N1Cc1ccc(OC(F)(F)F)cc1 [Example 89]
logP = 3.45^a)	O=C1C(O)=C(c2cccc(C(F)(F)F)c2)C(=O)N1c1ccc(Cl)cc1 [Example 61]
logP = 4.48^a)	O=C1C(O)=C(c2ccc(Cl)cc2)C(=O)N1Cc1cc(Cl)cc(Cl)c1 [Example 115]
logP = 3.75^a)	O=C1C(O)=C(c2ccc(C(F)(F)F)cc2)C(=O)N1c1cc(Cl)cc(Cl)c1 [Example 79]
logP = 4.65^a)	Cc1ccc(-c2ccc(Cl)cc2)cc1C1=C(O)C(=O)N(Cc2cccc(C(F)(F)F)c2)C1=O [Example 128]
logP = 2.82^a)	O=C1C(O)=C(c2ccccc2F)C(=O)N1Cc1ccccc1F [Example 95]
logP = 4.61^a)	Cc1ccc(-c2ccc(Cl)cc2)cc1C1=C(O)C(=O)N(Cc2cccc(Cl)c2)C1=O [Example 123]

logP	Compound
logP = 4.75^a)	Cc1ccc(-c2ccc(Cl)cc2)cc1C1=C(O)C(=O)N(Cc2ccccc2OC(F)(F)F)C1=O [Example 133]
logP = 4.45^a)	O=C1C(O)=C(c2cccc(OC(F)(F)F)c2)C(=O)N1Cc1cc(Cl)cc(Cl)c1 [Example 117]
logP = 3.70^a)	O=C1C(O)=C(c2ccc(Cl)cc2)C(=O)N1c1ccc(C(F)(F)F)cc1 [Example 70]
logP = 5.03^a)	Cc1ccc(-c2ccc(Cl)cc2)cc1C1=C(O)C(=O)N(Cc2ccc(Cl)cc2Cl)C1=O [Example 121]
logP = 3.94^a)	O=C1C(O)=C(c2cccc(OC(F)(F)F)c2)C(=O)N1c1cc(Cl)cc(Cl)c1 [Example 80]
logP = 3.75^a)	O=C1C(O)=C(c2cccc(OC(F)(F)F)c2)C(=O)N1c1ccc(C(F)(F)F)cc1 [Example 71]
logP = 4.08^a)	Cc1ccc(-c2ccc(Cl)cc2)cc1C1=C(O)C(=O)N(CC2CC2)C1=O [Example 125]
logP = 4.84^a)	Cc1ccc(-c2ccc(Cl)cc2)cc1C1=C(O)C(=O)N(Cc2ccc(OC(F)(F)F)cc2)C1=O [Example 134]
logP = 2.89^a)	O=C1C(O)=C(c2ccccc2Cl)C(=O)N1c1ccc(Cl)cc1 [Example 60]
logP = 2.85^a)	N#Cc1ccc(C2=C(O)C(=O)N(Cc3ccc(OC(F)(F)F)cc3)C2=O)cc1 [Example 87]
logP = 3.83^a)	O=C1C(O)=C(c2ccc(OC(F)(F)F)cc2)C(=O)N1Cc1ccccc1F [Example 97]
logP = 2.67^a)	O=C1C(O)=C(c2cc(Cl)cc(Cl)c2)C(=O)N1CC(F)(F)F [Example 43]
logP = 3.16^a)	O=C1C(O)=C(c2c(F)cccc2F)C(=O)N1Cc1ccc(OC(F)(F)F)cc1 [Example 82]
logP = 4.70^a)	Cc1ccc(-c2ccc(Cl)cc2)cc1C1=C(O)C(=O)N(Cc2c(Cl)cccc2Cl)C1=O [Example 140]
logP = 2.31^a)	N#Cc1ccc(C2=C(O)C(=O)N(Cc3ccccc3F)C2=O)cc1 [Example 98]
logP = 3.75^a)	O=C1C(O)=C(c2cccc(C(F)(F)F)c2)C(=O)N1c1ccc(OC(F)(F)F)cc1 [Example 53]
logP = 3.48^a)	O=C1C(O)=C(c2cc(Cl)cc(Cl)c2)C(=O)N1Cc1ccccc1F [Example 102]
